This note sets out measurements from patent US10676429B2, “Sulfamoyl-arylamides and the use thereof as medicaments for the treatment of hepatitis B” (priority 2012, dated 2020).

One data set deals with HepG2 cells. Description: Cytotoxicity in HepG2 cells using CellTiter-Blue (6 days). Conditions: read-out: HepG2 6 days CC50, 6 days, CellTiter-Blue.
Data set [1] in a line: Cytotoxicity in HepG2 cells, 4 days, Resazurin assay. Conditions: human, HepG2 cells. In general terms: The colour change of resazurin is a common sign of viable cells or microbes.
For data set [2], the system named is HBV. Kind of data set: Anti-HBV activity in stable transfected HepG2.2.15 cell line (HBV DNA from secreted virions, realtime PCR). It is filed as cell-based. Particulars: Hepatitis B virus, HepG2.2.15, 144 h, HepG2.2.15 cells, 6 days of treatment, secreted virion HBV DNA; read-out: HepG2 2.15 EC50.
The test system of data set [3] is HBV. Kind of data set: Anti-HBV activity in HepG2.117 cell line (Tet-off, intracellular HBV DNA, realtime PCR). It is filed as cell-based. Conditions: Hepatitis B virus, HepG2.117, 72 h, HepG2.117 cells, 3 days of treatment, intracellular HBV DNA; read-out: HepG2 117 EC50.

SMILES strings stand for the structures. pEC50: −log10 of the molar value.

On to `O=C(Nc1ccccc1)c1cccc(S(=O)(=O)NC2CCCC2)c1` [Compound 21], for which the CC50 in the data set on HepG2 cells was found to be 27.2 µM. Besides, in data set [1], the 50% cytotoxic concentration (CC50) at 4 days was found to be 41.1 µM. In addition, the pEC50 in the data set with HBV [2] was 6.22; with HBV [3] it was 6.12.
In the case of `O=C(Nc1ccc(F)cc1)c1ccc(Cl)c(S(=O)(=O)N2CCCCCC2)c1` [Compound 23], the cytotoxic concentration (CC50) in the data set on HepG2 cells was 17 µM. This molecule also showed a CC50 at 4 days in data set [1] of 19.6 µM. In addition, the pEC50 in the data set on HBV [2] is 6.18; in the data set with HBV [3], 5.89.

A word on the CC50: it is the concentration giving 50% cytotoxicity. The term pEC50 denotes the EC50 on a negative log10 scale, so that one unit is a factor of ten.
